# According to PubChem BioAssay AID1996:
# Conditions: buffer; pH 7.4; 200.0 µM
row,Compound,solubility kinetic [µg/mL]
1,CC1(C(=O)N2CCOCC2)CCCCC1,26.3
2,O=S(=O)(NCCc1cccs1)c1ccc(Br)cc1,36.3
3,O=C(c1ccccc1)N1CCN(CCc2ccccc2)CC1,40.7
4,Cc1cccc(NC(=O)Nc2ccc(Br)cc2)n1,< 0.2
5,Cc1ccc(C(=O)NCCNC(=O)COc2ccccc2Cl)cn1,> 52.2
6,CSc1ncccc1C(=O)OCc1ccccc1Cl,< 0.6
7,COc1ccc(Cl)cc1C(=O)O/N=C(\N)c1ccncc1,32.5
8,O=C(Cn1c(NCCO)nc2ccccc21)NCC1CCCO1 (stereo unspecified),> 47.8
9,CC(NC(=O)C(=S)N1CCN(C)CC1)c1ccccc1 (stereo unspecified),> 43.7
10,CCOc1cc(C(N)=O)cc(Cl)c1OCC,34.6
11,O=C(N1CCOCC1)N1CCN(S(=O)(=O)c2ccc(Cl)cc2)C1,44.5
12,CCN(CC)CCOC(=O)c1ccc(Cl)cc1Cl.Cl,> 49
13,Cc1ccsc1C(=O)OCC(=O)N1C(C)CCCC1C (stereo unspecified),> 44.3
14,COc1ccccc1/C=C/C(=O)OCC(=O)N1CCCCC1,> 45.5
15,Cc1ccc(SCc2cn3cc(Cl)ccc3n2)cc1,2.9
16,Cc1ccc(N(CC(=O)N2CCOCC2)S(C)(=O)=O)cc1Cl,> 52
17,CC1CCCCC1NC(=S)NC(=O)c1ccccc1Cl (stereo unspecified),1.6
18,COc1cccc(CNCc2ccco2)c1O.O=C(O)C(=O)O,> 48.5
19,Brc1cc(-c2ccccc2)nc(-c2ccccc2)n1,< 0.3
20,CCOC(=O)Nc1ccc2c(c1)N(C(=O)CCN1CCOCC1)c1ccccc1S2,> 64.1
21,COc1cccc(CN2CCSCC2)c1OC,24.2
22,CC(NC(=O)CCNC(=O)c1ccccc1Cl)c1ccc(-n2ccnc2)cc1 (stereo unspecified),> 59.5
23,CCN(CC)CC#Cc1ccc(C)cc1.Cl,17.1
24,O=C(Nc1ccccc1)Nc1ccc(Cl)nc1Cl,3.9

row,Compound,solubility kinetic [µg/mL]
1,Cc1ccc(C(=O)OCC(=O)N2CCCCCC2)c(O)c1,14
2,CC(C(=O)N1CCc2ccccc21)N1CCN(Cc2ccccc2)CC1 (stereo unspecified),> 52.4
3,CC1CCCC(NC(=O)c2cccs2)C1C (stereo unspecified),23
4,O=C(c1ccc(Br)cc1)N(c1ccccn1)C1CCCCC1,16.5
5,O=C(NCC1CCCO1)c1ccc[nH]1 (stereo unspecified),> 29.1
6,COc1ccc(/C=C/C(=O)NC(CCSC)C(=O)O)cc1 (stereo unspecified),> 46.4
7,CCOc1ccc(NC(=S)NC(=O)C2CCCC2)cc1,1
8,Cc1onc(-c2ccccc2Cl)c1C(=O)N1CCCCCC1,> 47.8
9,COC(=O)CCC(=O)N1CCCC(CO)(Cc2ccccc2F)C1 (stereo unspecified),> 50.6
10,CS/C(N)=N/C(=S)Nc1cccc(Cl)c1,31.4
11,O=C(Cc1cccs1)NCc1cccc(Br)c1,> 46.5
12,Cc1cccnc1NC(=O)CCNC(=O)c1ccc(Cl)cc1,> 47.7
13,O=C(c1ccccc1[N+](=O)[O-])N1CCCC(C(=O)N2CCCCCC2)C1 (stereo unspecified),53
14,CC1CCN(S(=O)(=O)c2c[nH]c(=O)[nH]c2=O)CC1,> 41
15,O=C(Nc1cccc2ccccc12)NC(Cc1ccccc1)C(=O)O (stereo unspecified),> 50.2
16,Cc1cccnc1NC(=O)c1ccc(C(=O)c2ccccc2)cc1,42.5
17,COc1ccc(Cl)cc1C(=O)NCCCSc1ccccc1,7.8
18,COc1ccc(/C=C/C(=O)NCc2ccccn2)cc1OC,> 44.8
19,COc1cc(C(=S)N2CCOCC2)cc(OC)c1OC,> 44.6
20,CC(OC(=O)c1ccccn1)C(=O)Nc1nc(-c2ccc(F)c(F)c2)cs1 (stereo unspecified),7.9
21,O=C(CSc1ncccn1)NCC1CCCO1 (stereo unspecified),> 38
22,COc1ccc(OCC(=O)NCCNC(=O)c2cccnc2)cc1,47.8
23,CCOc1ccc(CN2CCSCC2)cc1,18.5
24,Cc1csc(NC(=O)c2ccc3ccccc3n2)n1,4

# Results, then the compound that gave them:
row,solubility kinetic [µg/mL],Compound
1,1.1,CC(C)Cc1ccc(S(=O)(=O)Nc2ccc3[nH]c(=O)[nH]c3c2)cc1
2,> 46.1,O=C(COC(=O)c1ccccc1)Nc1ncc([N+](=O)[O-])s1
3,> 40.4,Cc1cnc(C(=O)OCc2nc3ccccc3o2)cn1
4,< 0.8,COc1ccccc1C1CCN(Cc2ccc(Cl)cc2Cl)CC1
5,1.2,COc1ccccc1NC(=O)Cn1cc(C(=O)c2ccco2)c2ccccc21
6,10.7,CCOc1ccc(S(=O)(=O)N2CC(=O)Nc3ccccc32)cc1
7,> 50.9,COc1ccc(/C=C/C(=O)O)cc1S(=O)(=O)N1CCC(C)CC1
8,34.6,COCCn1c(N)c(C(=S)NC(=O)c2cccs2)c(=O)[nH]c1=O
9,51.6,CC(=O)C1=C(O)C(=O)N(Cc2ccccc2)C1c1ccc(N(C)C)cc1 (stereo unspecified)
10,> 49.8,CC1(C)CC(=O)C2=C(C1)OC(N)=C([N+](=O)[O-])C2c1ccc(F)cc1 (stereo unspecified)
11,> 46.5,CC1=CC(C)(C)NC(=S)N1NC(=O)c1ccccc1Cl
12,31.5,Cc1ccc(OCC(=O)Nc2cccc3ccccc23)c([N+](=O)[O-])n1
13,< 0.4,O=C(CCS(=O)(=O)c1ccccc1)Nc1nc(-c2ccc(F)cc2)cs1
14,1.7,COc1ccc(Nc2nc(NCC3CCCO3)nc(N)c2[N+](=O)[O-])cc1 (stereo unspecified)
15,> 41.6,COc1ccc(CCC(=O)NC(C)C2CCCO2)cc1 (stereo unspecified)
16,> 41.4,O=S1(=O)CCN(OCc2ccc(Cl)cc2)CC1
17,4,Cc1cc(C(=O)NC(C)CCc2ccccc2)ccc1[N+](=O)[O-] (stereo unspecified)
18,4.6,COCCNc1nc(-c2ccccc2)nc2c1oc1ccccc12.Cl
19,4.1,CCCn1c(=O)c(C(=O)Nc2ncccc2O)c(O)c2ccccc21

row,solubility kinetic [µg/mL],Compound
1,51.1,CCOC(=O)C(C)Oc1ccc(NC(=O)C(Cl)(Cl)Cl)cc1 (stereo unspecified)
2,19.6,Cc1ccccc1N1CCN(CC(=O)NCc2ccc(Cl)cc2)CC1
3,9,CCCn1c(N)c(C(=O)COC(=O)/C=C/c2ccc(OC(F)F)c(OC)c2)c(=O)[nH]c1=O
4,2.1,COc1ccc(NC(=O)c2ccccc2)c([N+](=O)[O-])c1
5,29.4,COc1ccc(C(=O)n2cnc3ccccc32)cc1[N+](=O)[O-]
6,46.5,Cc1ccc2cccc(OCC(=O)NCCC3=CCCCC3)c2n1
7,3.5,O=C(COC(=O)c1ccc2c(c1)OCO2)Nc1ccccc1Cl
8,> 50.8,COc1ccc(S(=O)(=O)N2CCC(C(=O)NC3CC3)CC2)cc1
9,> 43.6,Cc1cc(C)c(S(=O)(=O)NCc2cccnc2)c(C)c1
10,16.2,CN(C(=O)CSc1nc2ccccc2c(=O)n1-c1ccccc1F)C1CCS(=O)(=O)C1 (stereo unspecified)
11,2.8,CCOc1ccc(C(C)NC(=S)NCc2ccc(F)cc2)cc1 (stereo unspecified)
12,1.1,Cc1cccc(OCCOC(=O)c2c(-c3ccccc3)noc2C)c1
13,> 46.9,CC1CN(C(=S)NC(=O)c2ccc(Cl)cc2)CC(C)O1 (stereo unspecified)
14,0.8,CCOc1ccccc1NC(=O)NCc1ccc2c(c1)OCO2
15,1.5,Cc1c(C(=O)NCc2ccccc2F)oc2ccccc12
16,< 0.6,CCOc1cc2c3c(c1)C(C)=CC(C)(C)N3C(=O)C2=O
17,0.6,COC(=O)CSc1nc(N)c(C#N)c(-c2ccc(O)cc2)c1C#N
18,43.9,COc1cccc(CC(=O)Nc2ccccc2N2CCCC2)c1
19,> 51.3,O=C1CN(C(=O)COC(=O)Cc2ccccc2F)c2ccccc2N1
